The record followed here is patent US20250051403A1, “ANTIMICROBIAL PEPTIDES, VARIANTS AND CHEMICAL ANALOGUES THEREOF AND THEIR USES” (priority 2021, published 2025).

Values after ≈ are worked out from the molar mass of the structure shown. Where two headings read alike, the source gives them in different places. Positions of bridges follow the written chain, without caps; N, C: chain ends. Non-standard residues stand in square brackets, D forms with d. Residues, ends and D or L forms follow the SMILES beside them. Abu = CC[C@H](N)C(=O)O Bounds are passed on as bounds.

In experiment [1] the test system is P. aeruginosa Fluoroquinolone resistant (CIP 107398). Put plainly: MIC, broth microdilution. It counts as cell-based, Pseudomonas aeruginosa.
For experiment [2], the system named is S. aureus methicillin resistant USA300 (ATCC BAA-1717). Put plainly: MIC, broth microdilution. The format is cell-based, Staphylococcus aureus.
The test system of experiment [3] is Clostridium perfringens (ATCC 13124). Particulars: Table VI.
The test system of experiment [4] is B. subtilis nisin resistant (DSMZ 347).
The subject of a further experiment is Staphylococcus aureus. It counts as cell-based. The method, then: (§1) Biological (antimicrobial) activity of Michelicin (which comprises two disulfide bridges formed between four cysteines) synthetized with (A) or without (B) a stepwise formation of the desired disulfide pattern, was also determined. An analogue of Michelicin which has the same sequence as Michelicin except for the cysteine residues that are replaced by a neutral analogue of cysteine (i.e. Michelicin-OH 2343 (Abu-3-6-11-15)) was synthesized. Abu means 2-aminobutanoic group. This analogue is devoid of disulfide bridges. This analogue of Michelicin is called Michelicin no SS in Table VI.

In another experiment the test system is Acinetobacter baumannii. The format is cell-based. The method, then:
as §1

Experiment [5] relates to Helicobacter pylori 21031. The format is cell-based. The method, then:
as §1

The subject of experiment [6] is Salmonella enterica (CIP 80.39). Put plainly: MIC, broth microdilution. It counts as cell-based. On the procedure:
(§2) To standardize the bacterial cell suspension for assay of antibacterial activity, some colonies of each strain grown overnight on MHA (Mueller Hinton Agar. ROTH) plates were suspended in MHB (Mueller Hinton Broth. ROTH) or MHB saline (Mueller Hinton Broth containing 565 mM NaCl) and incubated at 37° C. or 30° C. until visible turbid. This log-phase inoculum was diluted 1:100 in the same culture media. Using sterile 96-well microtiter plates (CELLSTAR. Greiner bio-one), serial 2-fold dilutions (40 to 0.78 μM) of each peptide were prepared in cation-adjusted acetic acid 0.02% with 0.4% BSA (Bovin Serum Albumin fraction V. Boehringer) at a volume of 10 μL/well. Each well was inoculated with 100 μL of the standardized bacterial inoculum, corresponding to a final test concentration of about 10^5 CFU/mL. Antimicrobial activities were expressed as the MIC (Minimal Inhibitory Concentration), the lowest concentration of peptide at which 100% inhibition of microbial growth was observed after 24 h of incubation at 37° C. or 30° C. by measuring OD600 in a microtiter plate reader. The minimal bactericidal concentration (MBC) was defined as the peptide concentration where no colony growth was observed.
(§3) The same experiments as described in 1) were performed. For the evaluation of antimicrobial activity against some other strains, a resazurin microtiter assay was used as explained hereinafter.

Another experiment relates to S. aureus (Pasteur). As to the kind of experiment: MIC, broth microdilution. It counts as cell-based, Staphylococcus aureus. The conditions noted are these: Table IV.
Experiment [7] relates to Helicobacter pylori (ATCC 43504). Put plainly: MIC, broth microdilution. It counts as cell-based. The conditions noted are these: Table IV.
The test system of experiment [8] is Escherichia coli (ATCC 8739). As to the kind of experiment: MIC, broth microdilution. It counts as cell-based. Particulars: Table IV.
The subject of experiment [9] is M. abscessus R (CIP104537^TR). The conditions noted are these: Table IV; REMA, 90% growth inhibition.
A further experiment has as its system M. bovis BCG Pasteur. The conditions noted are these: Table IV; REMA, 90% growth inhibition.
Experiment [10] relates to Klebsiella pneumoniae carbapenem-resistant (DSMZ 26371). Put plainly: MIC, broth microdilution. The format is cell-based. The conditions noted are these: Table IV.
Another experiment deals with E. coli (D31 Pasteur). Put plainly: MIC, broth microdilution. The format is cell-based, Escherichia coli. Particulars: Table IV. The method, then:
as §2, §3

The test system of experiment [11] is Burkholderia cepacia (DSM 7288). Put plainly: MIC, broth microdilution. The format is cell-based. Particulars: Table IV.
In another experiment the test system is Serratia marcescens. Put plainly: MIC, broth microdilution. The format is cell-based. Particulars: Table IV.
In the next experiment the test system is V. diabolicus. Put plainly: Scanning electron microscopy of treated bacteria. The conditions noted are these: FIG. 9. It counts as cell-based, Vibrio diabolicus. From the text:
(§4) The arrows show pore formed through the membrane. For V. diabolicus, despite the results of FIG. 3, is seems that Michelicin has a pore-forming activity on these bacteria.

A further experiment concerns Pseudomonas sp biofilm. Put plainly: Biofilm formation assay (crystal violet). The conditions noted are these: 20 μM peptide, 2 h at 37° C. on 48 h biofilm; untreated culture 0.95. The format is cell-based. The method, then:
Overnight cultures of V. diabolicus and Pseudomonas sp (37° C., 200 rpm) were diluted to an OD600 of 0.1 in MHB medium and 200 μL aliquots of the suspensions were introduced into the wells of a 96 microtiter plates (Nunc). Plates were then incubated at 37° C. without shaking for 48 h. After removal of the standing culture, the wells were washed with MHB medium and Michelicin, Arenicin and Alvinellacin were added, respectively, at a final concentration of 20 μM in MHB. The treatment was performed during 2 h at 37° C. Wells were then washed three times with distilled water and the remaining attached bacteria were fixed with 99% methanol per well for 20 min at room temperature. Afterward, methanol was removed and plates were air-dried. Biofilms were stained with 300 μL of 1% crystal violet (v/v) for 20 min at room temperature, before the residual stain was removed. After washing, the crystal violet bound to the adherent cells was solubilized with 300 μL of 100% ethanol and absorbance was measured at 595 nm (TECAN, sunrise). Sterile medium served as negative control. It is clear on the view of FIG. 3 that Michelicin has a greater antimicrobial activity on a biofilm of Pseudomonoas sp strains than Alvinellacin. For Pseudomonas sp, OD595 is equal to 0.6 when treated with Michelicin, equal to 0.55 when treated with Arenicin and equal to 0.65 when treated with Alvinellacin. […]

In experiment [12] the test system is Pseudomonas aeruginosa (ATCC 9027). Put plainly: MIC, broth microdilution. The format is cell-based. The conditions noted are these: Table IV.
The test system of experiment [13] is Enterococcus faecalis Vancomycin-resistant (DSMZ 13591). Put plainly: MIC, broth microdilution. The format is cell-based. Particulars: Table IV.
The subject of experiment [14] is A. baumannii antibiotic resistant (CIP 110431). Particulars: Table IV.
In experiment [15] the test system is V. alginolyticus (MPV19 IFREMER). Put plainly: MIC, broth microdilution. It counts as cell-based, Vibrio alginolyticus.
The test system of experiment [16] is E. coli carbapenem- resistant (DSMZ 22314). The conditions noted are these: Table IV.
For experiment [17], the system named is Staphylococcus aureus (ATCC 6538P). Put plainly: MIC, broth microdilution. The conditions noted are these: Table IV. It counts as cell-based.
In experiment [18] the test system is Acinetobacter baumannii (CIP 103572). Put plainly: MIC, broth microdilution. The format is cell-based. The conditions noted are these: Table IV.
In experiment [19] the test system is Bacillus subtilis (ATCC 6633). As to the kind of experiment: MIC, broth microdilution. It counts as cell-based. Particulars: Table IV. The method, then:
as §2, §3

In the next experiment the test system is Pseudomonas sp. As to the kind of experiment: MIC, broth microdilution. The format is cell-based. Particulars: Table III; MHB saline 565 mM NaCl. On the procedure: as §2
Experiment [20] deals with Mycobacterium tuberculosis mc^26230.
A further experiment deals with V. alginolyticus. As to the kind of experiment: Scanning electron microscopy of treated bacteria. The format is cell-based, Vibrio alginolyticus. Particulars: FIG. 9.
From the text: as §4

For `CC[C@H](NC(=O)[C@H](CCCNC(=N)N)NC(=O)CNC(=O)[C@H](CC(N)=O)NC(=O)[C@H](CCCNC(=N)N)NC(=O)[C@H](CC)NC(=O)[C@@H](NC(=O)[C@H](CCCNC(=N)N)NC(=O)[C@@H](NC(=O)[C@H](CC)NC(=O)[C@@H](NC(=O)[C@@H](N)CCCNC(=N)N)C(C)C)C(C)C)[C@@H](C)CC)C(=O)N[C@@H](Cc1ccc(O)cc1)C(=O)N[C@@H](CCCNC(=N)N)C(=O)N[C@@H](CCCNC(=N)N)C(=O)N[C@@H](CC)C(=O)N[C@@H](Cc1c[nH]c2ccccc12)C(=O)N[C@@H](CC(N)=O)C(=O)N[C@H](C(=O)O)[C@@H](C)O` [Michelicin no SS, Michelicin-OH 2343 (Abu-3-6-11-15)] (H-RV[Abu]VRI[Abu]RNGR[Abu]YRR[Abu]WNT-OH; N-terminus assumed), the MIC was more than 80 µM in experiment [1] (CIP 107398); 0.625 µM (≈ 1.46 µg/mL) in the experiment with Vibrio alginolyticus; more than 80 µM in experiment [2] (USA300); more than 80 µM in experiment [3]; 5 µM (≈ 11.7 µg/mL) in [4] (Table VI, Bacillus subtilis Nisin resistant); 80 µM (≈ 187 µg/mL) against Staphylococcus aureus. The MIC was 2.5 µM (≈ 5.86 µg/mL) with Acinetobacter baumannii; 40 µM (≈ 93.7 µg/mL) in experiment [5]; 20 µM (≈ 46.9 µg/mL) against M. smegmatis mc^2155; more than 80 µM in the experiment on V. diabolicus (HE 800); 80 µM (≈ 187 µg/mL) in [6] (Table VI, Salmonella enterica).

With `CSCC[C@@H]1NC(=O)[C@@H]2CSSC[C@H](NC(=O)[C@H](CCCNC(=N)N)NC(=O)[C@H]([C@@H](C)O)NC(=O)[C@H](Cc3ccc(O)cc3)NC(=O)[C@@H](NC(=O)CNC(=O)[C@@H](N)CCCNC(=N)N)CSSC[C@@H](C(=O)N[C@H](C(=O)O)[C@@H](C)O)NC(=O)[C@H](C(C)C)NC(=O)[C@H](CCCNC(=N)N)NC1=O)C(=O)N[C@@H](Cc1c[nH]c3ccccc13)C(=O)N[C@@H](CCCCN)C(=O)N[C@@H](C(C)C)C(=O)NCC(=O)N[C@@H](CCCNC(=N)N)C(=O)N[C@@H](CC(N)=O)C(=O)NCC(=O)N[C@@H](CCCNC(=N)N)C(=O)N[C@@H](C(C)C)C(=O)N2` [Alvinellacin] (H-RGCYTRCWKVGRNGRVCMRVCT-OH; disulfide 3-21, 7-17; N-terminus and C-terminus assumed), the MIC was 1.25 to 2.5 µM with S. aureus (Pasteur); 1.25 to 2.5 µM in experiment [7]; 1.25 to 2.5 µM in experiment [8]; 17.0 to 17.8 µM in [9]; 1.25 to 2.5 µM in experiment [1] (Table IV); 0.07 to 0.15 µM with Vibrio alginolyticus. Besides, the MIC was 0.07 to 0.15 µM against Vibrio alginolyticus (24 h); 12.0 to 21.4 µM in the experiment with M. bovis BCG Pasteur; 1.25 to 2.5 µM in experiment [10]; 0.31 to 0.62 µM in the experiment on E. coli (D31 Pasteur); 10 µM (≈ 26 µg/mL) in [11]; more than 50 µM against Serratia marcescens. For the same compound, the MIC in experiment [12] was 1.25 to 2.5 µM; in experiment [2] (Table IV), 2.5 to 5 µM; in the experiment with Bacillus megaterium, 0.15 to 0.31 µM; in [4] (Table IV), 0.625 to 1.25 µM; in [13], 20 to 40 µM; in experiment [14], 0.625 to 1.25 µM. In addition, the MIC in experiment [15] (Table III, MHB) lay in the range of 0.07 to 0.15 µM; in experiment [15] (Table IV), 0.07 to 0.15 µM; in experiment [16], 0.625 to 1.25 µM; in experiment [17] it was 2.5 to 5 µM; against V. diabolicus (HE 800), 2.5 to 5 µM; in experiment [18] it was 1.25 to 2.5 µM. The MIC in experiment [6] (Table IV) lay in the range of 0.625 to 1.25 µM; in experiment [19] it was 0.625 to 1.25 µM; in experiment [20] it was 16.0 to 21.5 µM. In addition, the “MIC with 565 mM NaCl” value in the experiment on Vibrio alginolyticus lay within 0.07 to 0.15 µM; in the experiment with Bacillus megaterium it was 2.5 to 5 µM; in [15] (Table III, MHB saline 565 mM NaCl), 0.62 to 1.25 µM; against V. diabolicus (HE 800), 2.5 to 5 µM; against Pseudomonas sp. it was 5 to 10 µM. Also, the “Membrane damage seen by scanning electron microscopy” value in the experiment on V. diabolicus and in the experiment with V. alginolyticus was “able to damage” throughout. Besides, the “Biofilm OD595 after treatment” value in the experiment on Pseudomonas sp biofilm was determined as 0.65.
